The structures appear in SMILES notation.

The series in a line: gradient 5% acetonitrile 3 min, to 50% in 2 min, to 85% in 15 min, held 3 min, 100 µL/min. Conditions: column: Zorbax Extend-C18 2.1 x 50 mm; eluents: water / acetonitrile, 0.1% formic acid. The method in brief: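 The system's dead and dwell volumes were 40 μL and 900 μL, with a Zorbax Extend-C18 column (2.1 × 50 mm, 1.8 μm) run at 100 μL/min in water and acetonitrile containing 0.1% formic acid each. Pure standards were analyzed in mixtures of ~100 molecules by HPLC–quadrupole time-of-flight mass spectrometry in positive and negative ionization mode. Retention time was assigned from computationally picked, manually inspected adduct peaks.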
As to `O=C(CSc1nc2scc(-c3ccccc3)c2c(=O)[nH]1)c1ccccc1`, the RP-LC retention time worked out at 936 s.
Under `COc1ccc(NC(=O)NCCc2cn(C)c3ncccc23)c(OC)c1` stands 640 s.
Then `Cc1ccc(CNC(=O)c2nc(-c3oc4c(C)cccc4c3C)no2)o1`, with 1080 s.
Under `O=C(c1nnc(-c2ccc(S(=O)(=O)N3CCCC3)cc2)o1)N1CCC(Cc2ccccc2)CC1` stands 1130 s; under `CN1C(=O)c2ccccc2Oc2ccc(C(=O)NCc3ccco3)cc21`, 788 s.
`CCNC(=O)N1CCCC(c2cccc(C(=O)NCCC3=CCCCC3)c2)C1` (centres undefined) came in with an RP-LC retention time of 906 s.
Then `Cc1ccc(NC(=O)C(=O)NCCCN2CCOCC2)cc1F`, with 573 s; and `Cc1cccc(S(=O)(=O)N2CCC(c3cc(N)on3)CC2)c1`, with 615 s; and `CCc1ccc(NC(=O)N2CCc3nc(-c4ccc(F)cc4)ncc3C2)cc1`, with 1040 s.
As for `Cc1ccc2c(Nc3ccc(C)c(F)c3)c(-c3nc(C)no3)cnc2n1`, the RP-LC retention time turned out to be 807 s.
As to `COc1ccccc1N1CCN(C(=O)c2cn(-c3cc(N4CCCCC4)ncn3)cn2)CC1`, the RP-LC retention time came to 856 s.
Then `CCCN1C(=O)C(NC(=O)c2cccc(OC)c2)(C(F)(F)F)C(C(=O)OC)=C1C` (centres undefined), with 946 s.
Under `CCCn1c(=O)c2c(nc3n2CCN3c2ccc(OC)cc2)n(C)c1=O` stands 834 s; under `CCCOc1ccc(CNC(=O)C2CCc3nc(N4CCOCC4)ncc3C2)cc1` (centres undefined), 792 s; under `COC(=O)CNC(=O)Nc1cc(F)c2nc(N3CCOCC3)ccc2c1`, 620 s.
Compound `COc1cc(OC)cc(C(=O)N2CCN(c3cc(C(C)C)n4cnnc4n3)CC2)c1` displayed an RP-LC retention time of 576 s.
Compound `Cc1nc2cc(-c3noc(-c4cccc(Br)c4)n3)ccc2n(C)c1=O` had an RP-LC retention time of 1170 s.
Under `COC(=O)C1=C(CN2CCN(C)CC2)NC(=O)NC1c1cc(C)ccc1C` (centres undefined) stands 614 s; under `O=C(Nc1cccc(-c2noc(C3CCC3)n2)c1)c1cccs1`, 1060 s.
`COc1cc(Cl)c(NC(=O)C(=O)c2ccc[nH]2)c(OC)c1` yielded an RP-LC retention time of 969 s.
Then `O=C(Nc1ccc(-c2cn3ccccc3n2)cc1)c1ccc([N+](=O)[O-])cc1`, with 586 s.
Compound `Cc1ccccc1NC(=O)NC1CCN(c2ccccc2)C1=O` (centres undefined) registered an RP-LC retention time of 781 s.
Under `Fc1ccc(Nc2c(-c3ccccc3)nc3cnccn23)cc1` stands 844 s; under `CC(Oc1ccccc1F)C(=O)NCCn1nc(-n2cccn2)ccc1=O` (centres undefined), 660 s; under `COc1ccc(-c2c(C)noc2NC(C)=O)cc1S(=O)(=O)N1CC=C(c2ccccc2)CC1`, 879 s.
In turn, `O=C(C1CCCCC1)N1CCCN(c2ncccc2-c2nc(C3CC3)no2)CC1` displayed an RP-LC retention time of 1010 s.
Take `CCc1nc2c(c(=O)n1CC(=O)NCc1ccc(F)cc1)CN(Cc1ccccc1)CC2`: the RP-LC retention time was determined as 649 s.
`CSc1cccc(NC(=O)Cn2c(=O)n(-c3ccccc3)c(=O)c3c2cc(C)n3C)c1` yielded an RP-LC retention time of 861 s.
Under `COc1ccc(CN(Cc2ccccc2)Cc2cc(=O)n3ccccc3n2)cc1` stands 666 s.
Then `COc1ccc(CC(=O)NCc2c(C)cc(C)nc2-c2ccc(OC)cc2)cc1`, with 708 s.
Then `Cn1c(C(=O)Nc2ccc(F)cc2F)cc2c(=O)oc3ccccc3c21`, with 923 s; and `O=C(NCc1ccc(F)cc1Cl)C1CCCN(c2ncnc3nn(-c4ccc(F)cc4)cc23)C1` (centres undefined), with 723 s.
On to `COc1ccc(CNC(=O)Nc2ccc(CC(=O)NCC(F)(F)F)cc2)cc1`, for which the RP-LC retention time stood at 706 s.
`O=C(CCCc1nnc2c(=O)n(-c3cccc(F)c3)ccn12)NCCc1c[nH]c2ccccc12` came in with an RP-LC retention time of 707 s.
The compound `Cc1ccc(NC(=O)CN2C(=O)C3CCCCN3c3ccc(S(=O)(=O)N(C)C)cc32)cc1C` (centres undefined) displayed an RP-LC retention time of 922 s.
For `O=C(CC1(O)C(=O)Nc2c(Cl)cc(Cl)cc21)c1ccc([N+](=O)[O-])cc1` (centres undefined), the RP-LC retention time was found to be 800 s.
`Cc1ccc(-c2nnc(N3CCC(C(=O)NCc4ccc(C)o4)CC3)o2)cc1`: the RP-LC retention time turned out to be 853 s.
Under `O=C(Nc1ccc(F)cc1)Nc1cccc(-c2ccc(N3CCOCC3)nn2)c1` stands 697 s; under `CCCN(CC1CC1)C(=O)c1nn(CCOC)c2c1CNCC2`, 567 s.
`COc1ccc(-c2nnc(-c3ccc(Cl)c(S(=O)(=O)N4CCOCC4)c3)o2)cc1` yielded an RP-LC retention time of 897 s.
Under `O=C(NC1CCN(Cc2ccccc2)CC1)C1CC(=O)N(CCc2ccccc2)C1` (centres undefined) stands 600 s; under `COc1ccc(-c2noc(C3CCCN3C(=O)Nc3ccc(C)cc3)n2)cc1` (centres undefined), 830 s.
Consider `Cc1noc(C)c1S(=O)(=O)N1CC(CN(C)C)C2(CCOCC2)C1` (centres undefined), for which the RP-LC retention time worked out at 600 s.
Then `O=C(NCCN1CCOCC1)c1nc2ccccn2c1-c1ccc(F)cc1`, with 616 s; and `O=C(Cn1nc(N2CCCCCC2)c2ccccc2c1=O)Nc1cccc(Cl)c1`, with 1180 s.
Turning to `COc1ccccc1CNC(=O)C1CCCN(c2nnc3cccc(C)n23)C1` (centres undefined), the RP-LC retention time is 688 s.
Then `Cc1cc(Nc2ccc(NC(=O)Nc3ccccc3)cc2)nc(N2CCOCC2)n1`, with 662 s; and `O=C(Nc1ccc(Cl)cc1)C1CCCN(S(=O)(=O)Cc2ccccc2)C1` (centres undefined), with 976 s.
Under `COc1ccc(CNc2nc3ccncc3n(Cc3ccccc3)c2=O)cc1` stands 710 s.
`COc1ccc(N2CCN(c3cc(SCC(=O)Nc4ccc(C(C)C)cc4)ncn3)CC2)cc1` showed an RP-LC retention time of 1110 s.
Under `COc1ccc(OC)c(-c2csc(NC(=O)c3ccccc3)n2)c1` stands 1040 s.
Take `Cc1c(Cl)ccc2c(=O)c3c([nH]c12)CCN(CC(=O)Nc1ccc(Cl)c(F)c1)C3`: the RP-LC retention time is 646 s.
Under `CCC(c1cccs1)N1C(=O)[C@H]2CN(S(=O)(=O)c3ccc(F)cc3)C[C@H]2C1=O` (some centres undefined) stands 979 s.
Under `CCOc1ccc(C2Cn3nnc(-c4nc(-c5ccccc5OCC)no4)c3CO2)cc1` (centres undefined) stands 1200 s; under `CCOC(=O)C(C)NC(=O)N1CCN(c2nc3ccccc3n2CC)CC1` (centres undefined), 609 s; under `Cc1ccsc1C(=O)NC1CCN(c2cc(-c3ccc(F)cc3)[nH]n2)C1` (centres undefined), 670 s.
Regarding `COc1ccc(C2Cn3cnc(C(=O)N4CCC(C(=O)Nc5ccc(C)cc5C)CC4)c3CO2)cc1` (centres undefined), the RP-LC retention time stood at 740 s.
Then `O=C(Nc1cnc(-c2cccnc2)nc1)C1CCC1`, with 659 s; and `CCOC(=O)C(=O)NCC1CCCN1S(=O)(=O)c1ccc(OC)cc1` (centres undefined), with 700 s; and `Cc1ccc(C(=O)N2CCCC(c3ccnc(Nc4ccc(F)cc4)n3)C2)s1` (centres undefined), with 1020 s.
`COc1cc(CC(=O)N2CCN(c3cc(C)n4cnnc4n3)CC2)cc(OC)c1` yielded an RP-LC retention time of 607 s.
Under `O=C(O)c1cnc(N2CCOCC2)nc1-c1cccnc1` stands 569 s; under `COC(=O)c1ncn2c1C(=O)N(Cc1ccc(Cl)cc1)C(C)(C(=O)NCc1ccccc1)C2` (centres undefined), 755 s.
As for `O=C(Cn1c(=O)c2cccn2c2ccc(F)cc21)NCc1ccco1`, the RP-LC retention time amounted to 767 s.
As for `CCCNC(=O)CSc1cn(CC(=O)N2CC(C)OC(C)C2)c2ccccc12` (centres undefined), the RP-LC retention time was 745 s.
Under `CCCn1c(=O)c(C)nc2cc(-c3noc(COc4ccccc4)n3)ccc21` stands 1070 s; under `Cc1nnc(Cc2ccccc2)c2n[nH]c(C)c12`, 647 s.
The compound `CCn1cc(C(=O)NCc2ccc(F)cc2)c2cccnc21` had an RP-LC retention time of 771 s.
Then `O=C1CC(c2nc(-c3ccccc3Cl)no2)CN1c1ccc2c(c1)OCO2` (centres undefined), with 933 s; and `COc1ccc(NC(=O)CN2C(=O)c3ccccc3C2=O)c2ccccc12`, with 782 s; and `CS(=O)(=O)Nc1cccc(NC(=O)c2ccc(=O)n(Cc3ccccc3)n2)c1`, with 718 s.
Under `CS(=O)(=O)N(Cc1ccncc1)C1CN(C(=O)c2ccc3ncccc3c2)C1` stands 698 s; under `CC(C)c1ccc(N2C=C(C(=O)N3CCOCC3)S(=O)(=O)c3ccccc32)cc1`, 916 s.
Under `CC(C)c1nnc2n1CCN(C(=O)c1ccsc1)C2` stands 596 s; under `Cc1nc(C)c(C(=O)Nc2nc(-c3ccc4c(c3)CCCC4)cs2)s1`, 1170 s; under `Cc1cccc(-c2noc(Cc3nc(-c4ccccc4)cs3)n2)c1`, 1260 s.
With `COc1ccc(OC)c(NC(=O)N2CCOc3ccc(Cl)cc32)c1`, the RP-LC retention time amounted to 1010 s.
On to `CCc1nc(N2CCC(C(=O)NCc3ccccc3C(F)(F)F)CC2)c2c(C)scc2n1`, for which the RP-LC retention time worked out at 754 s.
Then `CC(C)c1c(C2CCN(C(=O)c3ccoc3)CC2)noc1N`, with 674 s.

The values above are taken from the METLIN SMRT retention time set (Domingo-Almenara et al. 2019).
